Measurements as given in PubChem BioAssay (NCI).
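Protocol summary: plate cells (96-well), add compound at 5 concentrations, incubate 48 h, interpolate endpoints linearly. GI50 marks 50% less growth. TGI denotes the concentration required for complete inhibition of growth.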

Key:
Experiment in all cases: DTP human tumour cell line panel, 48 h
[1] = system: A498 renal
[2] = system: A549 NSCLC
[3] = system: CAKI-1 renal
[4] = system: CCRF-CEM leukemia
[5] = system: HCT-15 colon
[6] = system: LOX IMVI melanoma
[7] = system: M14 melanoma
[8] = system: MDA-N
[9] = system: MOLT-4 leukemia
[10] = system: NCI-H522 lung
[11] = system: OVCAR-5 ovarian
[12] = system: OVCAR-8 ovarian
[13] = system: SF-539 CNS
[14] = system: SNB-75 CNS
[15] = system: UO-31 renal
[16] = system: HL-60(TB) leukemia
[17] = system: UACC-62 melanoma
[18] = system: COLO 205 colon
[19] = system: HCC-2998 colon

SMILES	TGI [1] [µM]	TGI [2] [µM]	TGI [3] [µM]	TGI [4] [µM]	TGI [5] [µM]	TGI [6] [µM]	TGI [7] [µM]	TGI [8] [µM]	TGI [9] [µM]	TGI [10] [µM]	TGI [11] [µM]	TGI [12] [µM]	TGI [13] [µM]	TGI [14] [µM]	TGI [15] [µM]	TGI [16] [µM]	TGI [17] [µM]	TGI [18] [µM]	TGI [19] [µM]	GI50 [16] [µM]
CC(C)CC1N=C(OCc2ccccc2)OC1=O (stereo unspecified)	> 100	> 100	> 100	> 100	> 100	> 100	> 100	> 100	> 100	> 100	> 100	> 100	> 100	> 100	> 100	–	–	–	–	–
C#CCn1c(=O)ccn(/C(=C/C(=O)OCC)C(=O)OCC)c1=O	30.8	34.9	3.05	6.35	7.8	40.3	11.8	41.1	> 56.4	–	21.9	5.11	3.99	46.5	25.3	> 52.9	27.8	–	–	–
COC(=O)[C@H](Cc1ccccc1)NC(=O)N(CCNC(=O)OC(C)(C)C)c1ccccc1	> 100	> 100	> 100	> 100	> 100	> 100	> 100	> 100	> 100	> 100	> 100	> 100	–	> 100	> 100	> 100	> 100	> 100	> 100	–
NC1NCCC(=O)N1CCc1c[nH]c2ccccc12 (stereo unspecified)	27.9	69.3	94.4	51.9	65	30.2	33.3	34.3	–	> 100	69.3	89.1	31.5	22.9	> 100	44.7	37.6	32.5	35.2	–
O=C(OCC(OC(=O)c1ccccc1)C1CC(C2(O)CCCCC2)C(=O)O1)c1ccccc1 (stereo unspecified)	> 25	> 25	> 25	> 25	> 25	> 25	> 25	> 25	19.1	> 25	> 25	> 25	> 25	> 25	3.88	–	2.21	> 25	> 25	–
CN(C)CC(C)(C)CN1c2ccccc2Sc2ccccc21	26.4	29.3	24.7	–	> 100	26.4	22.4	28.2	20.8	25.9	29.9	28.6	34.3	18	–	–	28.2	24.9	–	–
O=C(CC(C(=O)c1cccs1)c1ccc2c(c1)OCO2)c1ccccc1 (stereo unspecified)	> 100	> 100	> 100	–	> 100	> 100	> 100	> 100	–	> 100	–	> 100	> 100	> 100	> 100	> 100	> 100	> 100	> 100	–
Cn1c(=O)cc(Nc2ccc(N)cc2)[nH]c1=O	> 100	> 100	> 100	> 100	> 100	> 100	> 100	> 100	> 100	> 100	> 100	> 100	> 100	> 100	> 100	–	> 100	> 100	> 100	–
CC(C)C(/C=C/c1ccc(Cl)cc1)=N\NC(=O)N/N=C(/C=C/c1ccc(Cl)cc1)C(C)C	33.9	41.5	35.6	> 100	> 100	–	60	> 100	> 100	–	> 100	38	31.2	39	> 100	> 100	> 100	> 100	> 100	–
Cc1ccc(-c2cc(=O)c(=O)[nH][nH]2)cc1	> 100	> 100	> 100	> 100	> 100	> 100	> 100	> 100	> 100	> 100	> 100	> 100	> 100	> 100	> 100	–	> 100	> 100	> 100	–
CCOC(=O)c1cc([N+](=O)[O-])c(Sc2ncnc3nc[nH]c23)c([N+](=O)[O-])c1	25.6	55.6	12.7	4.39	6.57	17.9	15	15.1	–	2.34	5.15	17.9	13.4	–	7.08	23.4	11.9	3.08	36.7	–
C=C(C)CCC(O)[C@](C)(O)[C@H]1[C@H](O)C[C@@]2(C)[C@@H]3CCc4c(cc(OC5OC(CO)C(O)C(O)C5O)c(O)c4C)C3(C)C(=O)C[C@]12C (stereo partly specified)	> 100	> 100	> 100	> 100	> 100	> 100	> 100	> 100	> 100	> 100	> 100	> 100	> 100	> 100	> 100	–	> 100	> 100	> 100	–
Cc1cc(N=Cc2c(CO)cnc(C)c2O)c(N=Cc2c(CO)cnc(C)c2O)cc1C	> 100	> 100	> 100	80	> 100	> 100	> 100	> 100	–	> 100	> 100	> 100	> 100	> 100	–	> 100	> 100	> 100	> 100	0.0212
O=CC1OC(=O)c2cc(O)c(O)c(O)c2-c2c(cc(O)c(O)c2O)C(=O)OC1C1OC(=O)c2cc(O)c(O)c(O)c2-c2c(O)c(O)c3oc(=O)c4c(c(O)c(O)c5oc(=O)c2c3c54)-c2c(cc(O)c(O)c2O)C(=O)OCC1O (stereo unspecified)	> 100	> 100	25.9	> 100	> 100	29.2	> 100	51.9	90.1	85.7	> 100	41.2	–	93.8	> 100	> 100	> 100	> 100	> 100	–
C=CCOCn1cnc2c(=O)[nH]c(N)nc21	> 100	> 100	> 100	> 100	> 100	> 100	> 100	> 100	> 100	–	> 100	> 100	> 100	> 100	> 100	> 100	> 100	> 100	> 100	–
Cn1c(=S)[nH]c(N)c(Cc2ccccc2)c1=O	> 100	> 100	> 100	> 100	> 100	> 100	> 100	> 100	> 100	–	> 100	> 100	> 100	> 100	–	> 100	> 100	> 100	> 100	–
COc1ccc(/C=C/C(=O)CCN2CCN(CCC(=O)/C=C/c3ccc(OC)cc3)CC2)cc1	16.2	49.5	26.3	–	22.3	11.1	32.5	10.5	> 100	–	35.3	42.4	19.1	58.6	27.7	> 100	27.2	13.4	24.7	–
COc1ccc(Nc2cc(=O)[nH]c(=O)[nH]2)cc1	> 100	> 100	–	> 100	> 100	> 100	> 100	> 100	> 100	–	> 100	> 100	> 100	> 100	> 100	> 100	–	> 100	> 100	–
O=C(Nc1ccc(F)cc1)c1cc2c(cc1Cl)Sc1nccn1S2(=O)=O	74	> 100	> 100	> 100	> 100	> 100	> 100	> 100	> 100	> 100	> 100	> 100	> 100	46.9	–	–	–	> 100	> 100	–
O[C@@]12Cc3c([nH]c4ccccc34)[C@@H]3Oc4c(-c5ccccc5)ccc5c4[C@@]31CCN(CC1CC1)[C@@H]2C5	2.79	3.53	11.1	7.56	4.06	3.52	3.31	3.23	11	3.36	15.1	5.01	–	–	3.11	4.48	3.32	3.28	2.92	–
